Read-outs that look alike come from different tables or passages of the source.
Key:
human TRPM4 = human TRPM4 (Homo sapiens, UniProt Q8TD43); assay: QPatch automated patch clamp on TRPM4-expressing HEK293 cells; type: cell-based; details: hsTRPM4-expressing HEK293 cells
Protocol: QPatchHTX, an automated electrophysiology platform, was used in single hole mode. One day before use human TRPM4- or TRPM5-expressing HEK293 cells were seeded in a T75 flask at a density of 53k cells per cm^2 and at passages < 23. […] The extracellular solution was (in mM): CaCl2 (7), MgCl2 (2), KCl (5), HEPES (10), NaCl (70), NMDG (70); pH 7.4 with NaOH. The intracellular solution was (in mM): HEPES (10), NMDG (100), NaCl (50), EGTA (20), MgCl2 (1), CaCl2 (21); pH 7.2 with HCl. […] This protocol was repeated every 7 seconds. […] FFA was used as reference compound and applied cumulatively with each concentration incubating at a minimum of 20 voltage protocol runs (140 seconds) with the current after addition of FFA being calculated as full block. […] Each compound was measured at least 3 time independently.

[1] = target: potassium channel human Ether-a-go-go Related Gene (hERG) (Homo sapiens, UniProt Q12809); assay: hERG channel inhibition; type: cell-based
potassium channel human Ether-a-go-go Related Gene (hERG), sequence (Q12809 whole entry): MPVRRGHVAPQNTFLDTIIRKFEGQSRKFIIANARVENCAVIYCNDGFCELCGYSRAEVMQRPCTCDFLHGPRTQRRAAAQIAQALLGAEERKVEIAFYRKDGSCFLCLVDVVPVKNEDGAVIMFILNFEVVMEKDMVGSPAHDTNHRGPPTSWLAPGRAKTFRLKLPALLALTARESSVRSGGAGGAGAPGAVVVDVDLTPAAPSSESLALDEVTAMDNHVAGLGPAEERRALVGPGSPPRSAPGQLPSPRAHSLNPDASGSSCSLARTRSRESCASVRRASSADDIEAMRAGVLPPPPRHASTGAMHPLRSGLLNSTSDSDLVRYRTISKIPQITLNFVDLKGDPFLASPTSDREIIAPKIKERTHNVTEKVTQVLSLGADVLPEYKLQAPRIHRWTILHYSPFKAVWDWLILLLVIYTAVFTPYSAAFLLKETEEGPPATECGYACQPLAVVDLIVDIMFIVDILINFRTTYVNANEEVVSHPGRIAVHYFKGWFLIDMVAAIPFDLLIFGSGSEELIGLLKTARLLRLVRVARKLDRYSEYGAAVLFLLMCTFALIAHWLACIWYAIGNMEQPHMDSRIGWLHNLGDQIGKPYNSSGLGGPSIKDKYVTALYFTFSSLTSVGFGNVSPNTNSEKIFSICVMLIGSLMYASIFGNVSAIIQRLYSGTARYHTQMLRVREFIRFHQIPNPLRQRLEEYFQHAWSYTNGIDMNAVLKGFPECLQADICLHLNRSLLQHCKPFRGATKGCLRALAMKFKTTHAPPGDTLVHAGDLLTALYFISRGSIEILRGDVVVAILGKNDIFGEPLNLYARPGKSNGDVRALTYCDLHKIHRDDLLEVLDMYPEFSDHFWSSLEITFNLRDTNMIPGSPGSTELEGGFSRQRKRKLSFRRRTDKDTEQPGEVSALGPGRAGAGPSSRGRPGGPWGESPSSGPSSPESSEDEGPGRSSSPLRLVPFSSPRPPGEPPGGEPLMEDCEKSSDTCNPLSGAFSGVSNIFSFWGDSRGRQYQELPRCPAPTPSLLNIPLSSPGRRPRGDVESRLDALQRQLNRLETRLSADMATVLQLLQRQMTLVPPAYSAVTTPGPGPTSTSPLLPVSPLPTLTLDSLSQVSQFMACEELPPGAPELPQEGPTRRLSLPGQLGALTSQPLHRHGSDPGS
Text: We next used in vitro assays to test absorption, distribution, metabolism, excretion and toxicity (ADMET) parameters for selected compounds. We assessed compound absorption using parallel artificial membrane permeability (PAMPA) and Caco-2 cell permeability assays (cut-off criterion >2 × 10^−6 cm s^−1). […] To assess potential off-target activity of our compounds that could be relevant for safety in humans, we conducted comprehensive in vitro pharmacology using the commercially available and widely used SafetyScreen44 interaction panel[60] covering eight protein families.

Hepatocyte clearance = type: in vitro ADME; details: cryopreserved hepatocytes, 120 min, read-out: Hep. clearance (converted)
Protocol: Cryopreserved hepatocytes were exposed to test Compounds at a concentration of 1 μM for 120 minutes. Samples were collected at various time points, and percent remaining of test compound was determined using mass spectrometry (LC-MS/MS) to calculate hepatic clearance rate (L/h/kg).

[2] = Microsome clearance (human); type: in vitro ADME; details: human liver microsomes, 45 min, NADPH, read-out: Microsomes (h) clearance (converted)
Protocol: Human or mouse liver microsomes were incubated with the test compound at a concentration of 1 μM for 45 min in the presence of cofactor (NADPH in excess). Samples were collected at various time points, and % remaining of test compound was determined using mass spectrometry (LC-MS/MS) to calculate hepatic clearance rate (L/h/kg).

CYP3A4 = target: T1, CYP3A4 (Homo sapiens, UniProt P08684); assay: CYP inhibition assay 3A4; type: in vitro ADME
T1 construct: purchased BD Gentest
T1 sequence (P08684 whole entry): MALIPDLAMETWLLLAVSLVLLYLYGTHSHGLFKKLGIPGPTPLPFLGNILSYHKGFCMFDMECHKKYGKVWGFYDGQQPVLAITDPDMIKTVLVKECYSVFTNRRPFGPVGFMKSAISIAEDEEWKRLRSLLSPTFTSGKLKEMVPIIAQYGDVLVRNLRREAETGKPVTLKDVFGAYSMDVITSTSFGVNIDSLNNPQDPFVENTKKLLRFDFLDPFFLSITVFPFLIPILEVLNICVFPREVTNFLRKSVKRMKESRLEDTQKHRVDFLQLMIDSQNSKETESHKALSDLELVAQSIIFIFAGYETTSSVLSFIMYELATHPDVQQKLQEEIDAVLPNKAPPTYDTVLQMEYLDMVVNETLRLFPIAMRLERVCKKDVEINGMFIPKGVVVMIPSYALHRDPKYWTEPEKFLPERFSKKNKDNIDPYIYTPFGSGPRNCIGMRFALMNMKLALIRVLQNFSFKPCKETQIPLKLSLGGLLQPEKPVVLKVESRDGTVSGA
Protocol: The half-maximal inhibitory concentration (IC50) for cytochrome P450 (CYP) enzymes was determined using an in vitro enzyme inhibition assay. Recombinant CYP enzymes or human liver microsomes from BD Gentest, in 0.1 M phosphate buffer pH 7.4, containing native CYP enzymes were incubated with the test compound at various concentrations (1, 3, 10 and 30 μM) and containing 0.5% DMSO and 0.1% BSA final concentrations. 1 mM of NADPH cofactor was added and the reaction was started by a rapid increase of temperature until 37°C.

[3] = test system: primary mouse neuronal cultures; assay: Glutamate-induced excitotoxicity assay (RealTime-Glo viability); type: cell-based; details: 5 μM, primary mouse neuronal cultures
Protocol: To evaluate the in vitro efficacy of our developed compounds, we employed primary mouse neuronal cultures (PNCs) and conducted glutamate-induced excitotoxicity assays. Cultures were pre-treated with respective Series 1 and Series 3 compounds before glutamate exposure, and neuronal viability was assessed 15 h post-stimulation with glutamate.
Figure 3 Neuroprotective in vitro evaluation and in vivo pharmacokinetics (A) In vitro evaluation of compound activity on glutamate-induced excitotoxicity in mature primary neuronal cultures. Neuronal cultures were treated with 5 μM of the specified compound or vehicle control 5 h prior to glutamate stimulation, assessing compound rescue activity and toxicity relative to minimal (Vehicle +0 μM Glu) and maximal (Vehicle +50 μM Glu) excitotoxicity. Time course of a representative compound with virtual endpoint at 15 h post stimulation and assay window definition (left). Toxicity of compound treated cultures with and without glutamate stimulation (right). Data are represented as mean and 95% confidence interval; n ≥ 4; ∗p < 0.05, ∗∗p < 0.01, ∗∗∗p < 0.001; One-sample Wilcoxon signed-rank test. […] Mitochondrial membrane potential was measured by the mean fluorescence intensity of TMRE normalized to MitoTracker. Data are represented as mean ± SEM; n = 5; paired t-test. (C) In vivo pharmacokinetics of four selected compounds. Time course of compound concentration in the brain, heart, and plasma after a single dose via intraperitoneal (i.p.) or intravenous (i.v.) application. Data are represented as mean ± SEM. Half-life estimates by non-compartmental analysis are shown as vertical line and IC50 value as dashed horizontal line. (D) Compound concentration in the brain relative to respective IC50 concentrations after a single dose via intra-peritoneal or intra-venous routes. Also see Figure S6.
Excitotoxicity assays were performed using primary mouse neuronal cultures between 14 and 17 days in vitro (DIV). Cell viability was measured using RealTime-Glo MT Cell Viability Assay (Promega, catalog no. G9711) according to the manufacture protocol. Compounds were co-administered with RealTime-Glo reagents, and luciferase measurements were conducted using the Tecan-Spark M10 microplate reader with environmental control set to 37°C and 5% CO2. Neuronal cultures were stimulated with either glutamate or vehicle five hours after compound application and monitored for an additional 20 hours. To adjust for inter-well variability, arbitrary light units were normalized to a steady signal prior to glutamate addition for each well. Toxicity was calculated relative to the minimal cell viability at 15 hours post glutamate stimulation and cell viability of the PBS vehicle control.

[4] = TDI, read-out: Cyp IC50 TDI 3A4

human TRPM4, sequence (Q8TD43 whole entry): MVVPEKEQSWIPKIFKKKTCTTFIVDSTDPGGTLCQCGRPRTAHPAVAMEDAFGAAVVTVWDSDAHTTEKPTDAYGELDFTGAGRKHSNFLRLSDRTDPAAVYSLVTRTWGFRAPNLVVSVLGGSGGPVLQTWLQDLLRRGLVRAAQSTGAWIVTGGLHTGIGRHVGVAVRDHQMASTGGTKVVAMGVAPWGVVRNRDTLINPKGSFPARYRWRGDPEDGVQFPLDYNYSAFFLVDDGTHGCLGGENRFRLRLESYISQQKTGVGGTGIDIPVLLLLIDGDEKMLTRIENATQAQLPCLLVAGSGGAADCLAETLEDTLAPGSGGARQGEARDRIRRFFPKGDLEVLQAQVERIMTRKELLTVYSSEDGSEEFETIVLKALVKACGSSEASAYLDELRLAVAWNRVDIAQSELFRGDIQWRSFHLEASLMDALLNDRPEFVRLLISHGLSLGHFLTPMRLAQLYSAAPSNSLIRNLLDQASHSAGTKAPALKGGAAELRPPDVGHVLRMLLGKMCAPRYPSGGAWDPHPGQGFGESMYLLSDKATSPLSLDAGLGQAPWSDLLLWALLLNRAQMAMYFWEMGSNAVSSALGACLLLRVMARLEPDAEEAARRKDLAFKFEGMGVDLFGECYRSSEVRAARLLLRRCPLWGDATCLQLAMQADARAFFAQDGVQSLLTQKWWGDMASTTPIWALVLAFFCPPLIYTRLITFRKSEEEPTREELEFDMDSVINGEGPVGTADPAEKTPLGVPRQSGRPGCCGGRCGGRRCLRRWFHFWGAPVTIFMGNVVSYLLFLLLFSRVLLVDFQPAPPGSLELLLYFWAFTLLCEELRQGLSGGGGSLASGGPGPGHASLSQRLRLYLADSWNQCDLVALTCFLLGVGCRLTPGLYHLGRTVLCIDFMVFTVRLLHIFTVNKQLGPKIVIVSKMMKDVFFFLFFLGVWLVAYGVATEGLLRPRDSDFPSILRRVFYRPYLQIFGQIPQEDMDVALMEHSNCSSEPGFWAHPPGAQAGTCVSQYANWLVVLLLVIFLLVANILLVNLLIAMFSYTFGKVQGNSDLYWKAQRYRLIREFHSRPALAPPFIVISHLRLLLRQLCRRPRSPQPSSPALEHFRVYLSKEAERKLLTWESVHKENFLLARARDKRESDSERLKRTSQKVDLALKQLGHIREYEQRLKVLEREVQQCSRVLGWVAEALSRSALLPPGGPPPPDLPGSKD

## Fc1cccc(-c2ccccc2NCc2nc3ccccc3o2)c1 [CMP343]
Human TRPM4
  IC50: 0.09 µM
[1]
  IC50: > 30 µM
Hepatocyte clearance
  CLint scaled at 1 μM: 322 mL/min/kg
[2]
  CLint scaled at 1 μM: 570 mL/min/kg
CYP3A4; [4]
  IC50: > 50 µM
CYP3A4; read-out: Cyp IC50 3A4
  IC50: > 50 µM

## Fc1ccccc1-c1ccccc1NCc1nc2ccccc2o1 [CMP353]
Human TRPM4
  IC50: 0.08 µM
[1]
  IC50: > 10 µM
Hepatocyte clearance
  CLint scaled at 1 μM: 562 mL/min/kg
[2]
  CLint scaled at 1 μM: 605 mL/min/kg
CYP3A4; read-out: Cyp IC50 3A4
  IC50: > 29.6 µM
[3]
  Compound toxicity in neuronal cultures: observed toxicity

## c1csc(-c2ccccc2NCc2nc3ccccc3o2)c1 [CMP355]
Human TRPM4
  IC50: 0.59 µM
[1]
  IC50: > 10 µM
Hepatocyte clearance
  CLint scaled at 1 μM: 293 mL/min/kg
[2]
  CLint scaled at 1 μM: 558 mL/min/kg
CYP3A4; [4]
  IC50: > 50 µM
CYP3A4; read-out: Cyp IC50 3A4
  IC50: > 50 µM
[3]
  Compound toxicity in neuronal cultures: observed toxicity

## Cc1ccsc1-c1ccccc1NCc1nc2ccccc2o1 [CMP369]
[1]
  IC50: > 10 µM
Hepatocyte clearance
  CLint scaled at 1 μM: 347 mL/min/kg
[2]
  CLint scaled at 1 μM: 600 mL/min/kg
CYP3A4; human, pH 7.4
  IC50: > 50 µM
[3]
  Compound toxicity in neuronal cultures: observed toxicity

## Nc1ccccc1-c1ccccc1NCc1nc2ccccc2o1 [CMP457]
[2]
  CLint scaled at 1 μM: 243 mL/min/kg
[3]
  Compound toxicity in neuronal cultures: observed toxicity

— paper PMC11648915, “Identification and development of TRPM4 antagonists to counteract neuronal excitotoxicity” (iScience, 2024)
